Experimental data as given in the supplement of paper PMC10307832.

Tests used:
Experiment in all cases: relative viability (nuclei count vs DMSO), 5 days (fraction); higher = more cells survive
[1] = compound: C1COCCN1C2=NC(=NC3=C2OC4=C3C=CC=N4)C5=CC(=CC=C5)NC(=O)C6=CN=C(C=C6)N + O=C(c1cc(Cc2n[nH]c(=O)c3ccccc23)ccc1F)N1CCN(C(=O)C2CC2)CC1 [Olaparib] (partner 8 µM)
Method in brief: (§1)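 After 5 days of treatment, lung cancer cells in 1536-well plates were fixed and stained in a single step (final 0.05% Triton X-100, 1% formaldehyde, 1 ug/ml Hoechst) and their nuclei counted on 4× images. Treatment had been applied by pin tool the day after seeding as one drug alone or as a fixed anchor-drug dose with five library-drug doses (not always all listed) in √10 steps. Relative viability is the nuclei count of treated wells divided by that of vehicle wells, and values are medians of duplicate plates.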

[2] = compound: Nc1ccccc1NC(=O)c1ccc(CNC(=O)OCc2cccnc2)cc1 [Entinostat] + Nc1ncn([C@H]2C[C@H](O)[C@@H](CO)O2)c(=O)n1 [Decitabine] (partner 2 µM)
Method in brief: as §1

[3] = compound: CN1CCC(CNc2ccc3ncc(-c4cccc(OC(F)(F)F)c4)n3n2)CC1 [SGI-1776] + COc1cc2c(Oc3ccc(NC(=O)C4(C(=O)Nc5ccc(F)cc5)CC4)cc3F)ccnc2cc1OCCCN1CCOCC1 [Foretinib] (partner 0.25 µM)
Method in brief: as §1

[4] = compound: CN1CCC(CNc2ccc3ncc(-c4cccc(OC(F)(F)F)c4)n3n2)CC1 [SGI-1776] + CC(=O)c1c(C)c2cnc(Nc3ccc(N4CCNCC4)cn3)nc2n(C2CCCC2)c1=O [Palbociclib] (partner 0.5 µM)
Method in brief: as §1

Cell Line NCI-H1793 has a relative viability ([1]; first compound 0.02 µM) of 0.831, a relative viability ([1]; first compound 0.06325 µM) of 0.884 and a relative viability ([1]; first compound 0.2 µM) of 0.968. The relative viability ([1]; first compound 0.6325 µM) was 0.769, the relative viability ([1]; first compound 2 µM) was 0.508 and the relative viability ([2]; first compound 0.02 µM) was 0.519. For the same cell line, the relative viability ([2]; first compound 0.06325 µM) was 0.56, the relative viability ([2]; first compound 0.2 µM) was 0.383 and the relative viability ([2]; first compound 0.6325 µM) was 0.256. For the same cell line, the relative viability ([2]; first compound 2 µM) was 0.253, the relative viability ([3]; first compound 0.08 µM) was 0.953 and the relative viability ([3]; first compound 0.8 µM) was 0.597. The relative viability ([3]; first compound 2.53 µM) was 0.5, the relative viability ([3]; first compound 8 µM) was 0.184 and the relative viability ([4]; first compound 0.08 µM) was 0.353. For the same cell line, the relative viability ([4]; first compound 0.8 µM) was 0.335, the relative viability ([4]; first compound 2.53 µM) was 0.311 and the relative viability ([4]; first compound 8 µM) was 0.298.

For NCI-H1915, the relative viability ([1]; first compound 0.02 µM) was 0.215, the relative viability ([1]; first compound 0.06325 µM) was 0.273 and the relative viability ([1]; first compound 0.2 µM) was 0.245. For the same cell line, the relative viability ([1]; first compound 0.6325 µM) was 0.266, the relative viability ([1]; first compound 2 µM) was 0.269 and the relative viability ([2]; first compound 0.02 µM) was 0.276. It also gave a relative viability ([2]; first compound 0.06325 µM) of 0.246, a relative viability ([2]; first compound 0.2 µM) of 0.258 and a relative viability ([2]; first compound 0.6325 µM) of 0.229. For the same cell line, the relative viability ([2]; first compound 2 µM) was 0.197, the relative viability ([3]; first compound 0.08 µM) was 1.09 and the relative viability ([3]; first compound 0.8 µM) was 1.03. For the same cell line, the relative viability ([3]; first compound 2.53 µM) was 1.11, the relative viability ([3]; first compound 8 µM) was 1.09 and the relative viability ([4]; first compound 0.08 µM) was 0.534. It also gave a relative viability ([4]; first compound 0.8 µM) of 0.541, a relative viability ([4]; first compound 2.53 µM) of 0.554 and a relative viability ([4]; first compound 8 µM) of 0.509.

NCI-H1944 gave a relative viability ([1]; first compound 0.02 µM) of 0.424, a relative viability ([1]; first compound 0.06325 µM) of 0.41 and a relative viability ([1]; first compound 0.2 µM) of 0.42. For the same cell line, the relative viability ([1]; first compound 0.6325 µM) was 0.413, the relative viability ([1]; first compound 2 µM) was 0.512 and the relative viability ([2]; first compound 0.02 µM) was 0.391. It also gave a relative viability ([2]; first compound 0.06325 µM) of 0.372, a relative viability ([2]; first compound 0.2 µM) of 0.258 and a relative viability ([2]; first compound 0.6325 µM) of 0.25. The relative viability ([2]; first compound 2 µM) was 0.245, the relative viability ([3]; first compound 0.08 µM) was 0.869 and the relative viability ([3]; first compound 0.8 µM) was 0.83. The relative viability ([3]; first compound 2.53 µM) was 0.926, the relative viability ([3]; first compound 8 µM) was 0.713 and the relative viability ([4]; first compound 0.08 µM) was 0.346. It also gave a relative viability ([4]; first compound 0.8 µM) of 0.312, a relative viability ([4]; first compound 2.53 µM) of 0.303 and a relative viability ([4]; first compound 8 µM) of 0.279.

NCI-H1975 showed a relative viability ([1]; first compound 0.02 µM) of 0.772, a relative viability ([1]; first compound 0.06325 µM) of 0.865 and a relative viability ([1]; first compound 0.2 µM) of 1. It also gave a relative viability ([1]; first compound 0.6325 µM) of 0.86, a relative viability ([1]; first compound 2 µM) of 0.381 and a relative viability ([2]; first compound 0.02 µM) of 0.358. It also gave a relative viability ([2]; first compound 0.06325 µM) of 0.35, a relative viability ([2]; first compound 0.2 µM) of 0.301 and a relative viability ([2]; first compound 0.6325 µM) of 0.169. The relative viability ([2]; first compound 2 µM) was 0.155, the relative viability ([3]; first compound 0.08 µM) was 0.961 and the relative viability ([3]; first compound 0.8 µM) was 0.943. The relative viability ([3]; first compound 2.53 µM) was 0.827, the relative viability ([3]; first compound 8 µM) was 0.692 and the relative viability ([4]; first compound 0.08 µM) was 0.684. The relative viability ([4]; first compound 0.8 µM) was 0.563, the relative viability ([4]; first compound 2.53 µM) was 0.568 and the relative viability ([4]; first compound 8 µM) was 0.526.

Cell Line NCI-H1993 has a relative viability ([1]; first compound 0.02 µM) of 0.949, a relative viability ([1]; first compound 0.06325 µM) of 1.07 and a relative viability ([1]; first compound 0.2 µM) of 1.06. The relative viability ([1]; first compound 0.6325 µM) was 0.958, the relative viability ([1]; first compound 2 µM) was 0.201 and the relative viability ([2]; first compound 0.02 µM) was 0.537. For the same cell line, the relative viability ([2]; first compound 0.06325 µM) was 0.54, the relative viability ([2]; first compound 0.2 µM) was 0.559 and the relative viability ([2]; first compound 0.6325 µM) was 0.645. The relative viability ([2]; first compound 2 µM) was 0.466, the relative viability ([3]; first compound 0.08 µM) was 0.819 and the relative viability ([3]; first compound 0.8 µM) was 0.761. It also gave a relative viability ([3]; first compound 2.53 µM) of 0.688, a relative viability ([3]; first compound 8 µM) of 0.695 and a relative viability ([4]; first compound 0.08 µM) of 0.466. For the same cell line, the relative viability ([4]; first compound 0.8 µM) was 0.662, the relative viability ([4]; first compound 2.53 µM) was 0.526 and the relative viability ([4]; first compound 8 µM) was 0.504.

For NCI-H2009, the relative viability ([1]; first compound 0.02 µM) was 0.695, the relative viability ([1]; first compound 0.06325 µM) was 0.674 and the relative viability ([1]; first compound 0.2 µM) was 0.689. It also gave a relative viability ([1]; first compound 0.6325 µM) of 0.725, a relative viability ([1]; first compound 2 µM) of 0.687 and a relative viability ([2]; first compound 0.02 µM) of 0.433. For the same cell line, the relative viability ([2]; first compound 0.06325 µM) was 0.385, the relative viability ([2]; first compound 0.2 µM) was 0.4 and the relative viability ([2]; first compound 0.6325 µM) was 0.409. The relative viability ([2]; first compound 2 µM) was 0.323, the relative viability ([3]; first compound 0.08 µM) was 1.19 and the relative viability ([3]; first compound 0.8 µM) was 1.27. For the same cell line, the relative viability ([3]; first compound 2.53 µM) was 1.24, the relative viability ([3]; first compound 8 µM) was 0.931 and the relative viability ([4]; first compound 0.08 µM) was 0.251. For the same cell line, the relative viability ([4]; first compound 0.8 µM) was 0.151, the relative viability ([4]; first compound 2.53 µM) was 0.166 and the relative viability ([4]; first compound 8 µM) was 0.174.

In the case of NCI-H2023, the relative viability ([1]; first compound 0.02 µM) is reported as 0.587, the relative viability ([1]; first compound 0.06325 µM) is reported as 0.519 and the relative viability ([1]; first compound 0.2 µM) is reported as 0.379. For the same cell line, the relative viability ([1]; first compound 0.6325 µM) was 0.463, the relative viability ([1]; first compound 2 µM) was 0.316 and the relative viability ([2]; first compound 0.02 µM) was 0.199. For the same cell line, the relative viability ([2]; first compound 0.06325 µM) was 0.14, the relative viability ([2]; first compound 0.2 µM) was 0.157 and the relative viability ([2]; first compound 0.6325 µM) was 0.0887. For the same cell line, the relative viability ([2]; first compound 2 µM) was 0.0748, the relative viability ([3]; first compound 0.08 µM) was 0.96 and the relative viability ([3]; first compound 0.8 µM) was 0.857. For the same cell line, the relative viability ([3]; first compound 2.53 µM) was 0.675, the relative viability ([3]; first compound 8 µM) was 0.328 and the relative viability ([4]; first compound 0.08 µM) was 0.38. It also gave a relative viability ([4]; first compound 0.8 µM) of 0.396, a relative viability ([4]; first compound 2.53 µM) of 0.354 and a relative viability ([4]; first compound 8 µM) of 0.266.

In the case of NCI-H2085, the relative viability ([1]; first compound 0.02 µM) is reported as 0.735, the relative viability ([1]; first compound 0.06325 µM) is reported as 0.793 and the relative viability ([1]; first compound 0.2 µM) is reported as 0.747. For the same cell line, the relative viability ([1]; first compound 0.6325 µM) was 0.68, the relative viability ([1]; first compound 2 µM) was 0.547 and the relative viability ([2]; first compound 0.02 µM) was 0.552. For the same cell line, the relative viability ([2]; first compound 0.06325 µM) was 0.545, the relative viability ([2]; first compound 0.2 µM) was 0.51 and the relative viability ([2]; first compound 0.6325 µM) was 0.483. The relative viability ([2]; first compound 2 µM) was 0.405, the relative viability ([3]; first compound 0.08 µM) was 0.864 and the relative viability ([3]; first compound 0.8 µM) was 0.864. It also gave a relative viability ([3]; first compound 2.53 µM) of 0.852, a relative viability ([3]; first compound 8 µM) of 0.715 and a relative viability ([4]; first compound 0.08 µM) of 0.491. The relative viability ([4]; first compound 0.8 µM) was 0.482, the relative viability ([4]; first compound 2.53 µM) was 0.468 and the relative viability ([4]; first compound 8 µM) was 0.444.

Cell Line NCI-H2087 has a relative viability ([1]; first compound 0.02 µM) of 0.582, a relative viability ([1]; first compound 0.06325 µM) of 0.62 and a relative viability ([1]; first compound 0.2 µM) of 0.546. It also gave a relative viability ([1]; first compound 0.6325 µM) of 0.636, a relative viability ([1]; first compound 2 µM) of 0.32 and a relative viability ([2]; first compound 0.02 µM) of 0.283. The relative viability ([2]; first compound 0.06325 µM) was 0.302, the relative viability ([2]; first compound 0.2 µM) was 0.186 and the relative viability ([2]; first compound 0.6325 µM) was 0.133. The relative viability ([2]; first compound 2 µM) was 0.106, the relative viability ([3]; first compound 0.08 µM) was 1.1 and the relative viability ([3]; first compound 0.8 µM) was 1.17. The relative viability ([3]; first compound 2.53 µM) was 0.843, the relative viability ([3]; first compound 8 µM) was 0.376 and the relative viability ([4]; first compound 0.08 µM) was 0.299. The relative viability ([4]; first compound 0.8 µM) was 0.231, the relative viability ([4]; first compound 2.53 µM) was 0.293 and the relative viability ([4]; first compound 8 µM) was 0.204.
